± gives the expanded uncertainty stated by the source.
Details: Liquid

Structure (SMILES): FC(F)C(F)(F)F [pentafluoroethane]
- vapor or sublimation pressure (313.15 K): 2008 ± 38 kPa
- vapor or sublimation pressure (323.15 K): 2535 ± 48 kPa
- vapor or sublimation pressure (333.15 K): 3171 ± 59 kPa

From the NIST ThermoML archive (doi:10.1016/j.jct.2006.09.010)
